This passage reports melting point results from a melting point compilation (Tetko et al.; mined from patent text by program, amines drawn as free bases though some values may be those of a salt).

For the molecule `C[C@@H](n1cc(Cn2cncn2)nn1)[C@](O)(Cn1cncn1)c1ccc(F)cc1F`, the melting point was in the range of 162 to 163 °C.
Next, `Cc1cc2c(cc1N)OCO2`: 88 to 89 °C; `O=S1(=O)N=CN(C2CC2)c2cc(Br)cc(C(F)(F)F)c21`: 253 to 254 °C; `Cc1csc(C)c1N(N)C(=O)CN`: 68 to 70 °C.
The molecule `COc1cccc2c(Nc3ccccc3C)nc(N(C)C)nc12` had a melting point of 141 to 143 °C.
The value for `CON=C(c1cc(C)no1)c1ccccc1COc1cc(C)ccc1C` was 107 to 108 °C; that for `Cn1c(=O)c(-c2ccc(Cl)cc2Cl)cc2c3cc(-c4ccn[nH]4)ccc3[nH]c21` was 246 to 250 °C.
As to `CCCCCCCCCCCCCCCCOc1cccc(O)c1`, the melting point was 58 to 59 °C.
Next, `CC1(C)Oc2ccc(S(=O)(=O)c3ccccc3)cc2C(N)C1O` (configuration not stated): 160 to 163 °C; `C#Cc1c[nH]c2nc(NC(=O)C(C)(C)C)nc(O)c12`: over 300 °C; `CCc1nc(Cl)cc(NN)n1`: 147 to 150 °C.
In turn, `O=C1NC(=O)C(Oc2ccc3ccccc3c2)S1` (configuration not stated) displayed a melting point of 221 to 222 °C.
The molecule `Cc1nc(N)c2nc(C)n(CCOCCNC(=O)C(C)C)c2c1C` displayed a melting point of 180 to 182 °C.
The value for `CC12CCC(O)CC1CCC1C2C(=NO)CC2(C)C1CCC21OCCO1` (configuration not stated) was 158 to 159 °C; that for `OC(CNC1=NCCN1)c1cccc(Cl)c1` (configuration not stated) was 108 °C.
Next, `N=C(Nc1ccc(CCNCc2cccc(F)c2)cc1)c1cccs1`: 130 to 131 °C; `O=C(O)c1cccc(C(=O)O)c1Nc1ccc(I)cc1`: 241 to 243 °C.
Next, `CCOC(=O)c1cc2ccc(C)c(NS(=O)(=O)c3cccs3)c2[nH]1`: 184 to 185 °C.
Molecule `Cc1nc(CC2CCN(c3ccc(F)cc3)CC2)nc(C(=O)NCC(=O)O)c1O` yielded a melting point of 104 to 105 °C.
`CNc1ccc(N)cc1[N+](=O)[O-]`: the melting point lay within 115 to 116 °C.
Next, `Cn1cc(C(=O)c2ccccc2)c2c(Nc3cccc(N)c3)ncnc21`: 170 to 173 °C.
As to `O=c1c2ccccc2sc2ccc(N3CCOCC3)cc12`, the melting point was in the range of 166 to 167 °C.
The value for `N#CC1=C(c2cc3ccccc3s2)Nc2n[nH]cc2C1c1cccc2nonc12` (configuration not stated) was 220 °C.
Next, `N#Cc1cnc2cc(-c3ccc(C=O)cc3)sc2c1Nc1ccc(Oc2ccccc2)cc1`: 230 to 232 °C; `CC(C)C(C)(C#N)N1C(=O)C=C(Nc2ccccc2CO)C1=O` (configuration not stated): 39 to 45 °C; `O=C(O)c1ccc(F)cc1Sc1ccccc1`: 193 to 200 °C.
The molecule `CNC(=O)NN(CC(=O)OC)c1ccccc1` yielded a melting point of 122 °C.
The value for `COc1cc(COc2cccc3c2CN(C2CCC(=O)NC2=O)C3=O)ccc1OCCN1CCCC1` (configuration not stated) was 160 to 162 °C.
Next, `COC(=O)[C@H](Cc1ccc(NC(=O)c2c(C)cccc2Cl)cc1)NC(=O)OC(C)(C)C`: 154 to 157 °C.
For the molecule `NC(=O)CNC(=O)c1ccnc(-c2ccc3c(c2)C(c2ccc(Cl)cc2Cl)CC3)c1` (configuration not stated), the melting point was in the range of 168 to 170 °C.
The value for `O=C(OCc1ccccc1)C1Cc2ccsc2CN1Cc1ccccc1` (configuration not stated) was 135 to 140 °C.
On to `CCc1nc(OC)c(NC(=O)N2CCN(c3cc(F)cc(F)c3)CC2)cc1C(=O)NC(C)C(=O)Nc1cc(CO)cc(Nc2c3ccccc3nc3ccccc23)c1` (configuration not stated), for which the melting point was in the range of 202 to 204 °C.
The value for `CCOC(=O)C(C)(C#N)c1ccc2c(c1)Cc1cccnc1O2` (configuration not stated) was 119 to 120 °C; that for `CCOC(=O)c1cnc2cc(C(C)(C)C)ccc2c1O` was 279 to 281 °C.
The value for `CSc1cc2c(cc1C(F)(F)F)N(C(=O)Nc1cccc(C(=O)NCCN3CCOCC3)c1)CC2` was 198 to 200 °C; that for `COc1ccc(C=Cc2cccc(C#N)n2)cc1` was 121 to 122 °C.
The value for `COc1c(-c2cc3c(s2)C(O)CCC3)ccc2c(=O)c(C(=O)O)cn(C3CC3)c12` (configuration not stated) was 238 to 240 °C; that for `COC(=O)C(C)(N)Cc1c[nH]c2ccc(OC(F)F)cc12` (racemic) was 140 to 142 °C.
Molecule `C=CCC1CC(NC(=O)C(F)(F)F)C(OC(=O)c2ccc([N+](=O)[O-])cc2)C(C)O1` (configuration not stated) had a melting point of 138 to 139 °C.
Next, `COC(=O)c1cc(C(=O)NCCN(C)C)c2cc(Cc3ccc(F)cc3)cnc2c1O`: 115 to 116 °C.
Next, `Cc1ccc(S(=O)(=O)Nc2ccc([N+](=O)[O-])cc2C#N)cc1`: 166 to 167 °C; `CCn1cc(C#Cc2cccc(OC)c2)cc1C(=O)O`: 129 °C.
Next, `CCOc1cnc(-c2ccc(O)cc2)nc1`: 202 °C.
`CN(C)C(=O)n1nc(-c2ccccc2)c(-c2ccccc2)c(C#N)c1=O` yielded a melting point of 231 °C.
Next, `CN(C)CCNC(=O)N1CCN(c2ccc([N+](=O)[O-])cc2)CC1`: 115 to 120 °C.
`Cn1c(=O)c2cccc(N)c2c(=O)c2ccccc21` gave a melting point of 171 to 173 °C.
The value for `CCN(c1nc(C)cc(C(O)c2cnccc2-c2ccccc2OC)n1)c1ccc(C(C)C)cc1Br` (configuration not stated) was 68 to 70 °C.
Next, `Oc1ccc2c(c1)Cc1cc(Br)ccc1-2`: 183 to 184 °C; `COc1c(Br)ccc2oc(CNc3ccc(-c4ccc(S(=O)(=O)NC(C(=O)O)C(C)C)cc4)cc3)c(C)c12` (configuration not stated): 194 to 198 °C.
Molecule `COc1cc(Oc2ccc(S(C)(=O)=O)nc2)cc2cc(C3=NCC(CC(=O)NCC(C)(C)O)S3)[nH]c12` (configuration not stated) displayed a melting point of 173 to 174 °C.
Next, `Cc1ccc(N2C(=O)C(O)=C(C(=O)c3ccc(C4CCCCC4)cc3)C2c2ccc(OC(F)(F)F)cc2)nn1` (configuration not stated): 283 to 286 °C; `C=C1N(CCC)C(=O)OC12CCNCC2`: 106 to 108 °C.
The value for `CCOC(=O)c1ccc(-c2ccc(-c3cccc(OCOC)c3)c(-c3ccc4c(c3)C(C)(C)CCC4(C)C)c2)cc1` was 103 to 104 °C; that for `O=C1c2c(Cl)ccc(Cl)c2C(=O)N1CCN1CCC(c2noc3cc(F)ccc23)CC1` was 163 to 164 °C.
Consider `COc1c(N2CCC(CN)C2)c(F)cc2c(=O)c(C(=O)O)cn(C3CC3)c12` (configuration not stated), for which the melting point lay in the range of 198 to 200 °C.
In the case of `COc1ccc([C@@H]2Sc3cc(Cl)ccc3N(CCN(C)C(=O)OCc3ccccc3)C(=O)[C@@H]2O)cc1`, the melting point turned out to be 108 °C.
The value for `COc1ccc2c(c1)C(C(Cl)(Cl)Cl)OC(C(Cl)(Cl)Cl)O2` (configuration not stated) was 105 to 107 °C.
The value for `O[C@H]1c2cc3ccccc3cc2[C@H](O)c2cc3ccccc3cc21` was 235 °C.
The value for `COc1ccc(-n2c(-c3ccccc3)cnc2S)cc1` was 167 °C.
`Cc1ccc(NC2=C(C(=O)Nc3ccccc3)C(=O)OC2)cc1` yielded a melting point of 181 to 183 °C.
The value for `COc1ccc(CCNC(=O)Cc2ccc(OC)c(OC)c2)cc1OC` was 125 °C; that for `CC(C)(C)c1cc(C(=O)c2cccs2)cc(CN2CCCC2)c1O` was 95 to 97 °C.
The value for `CC(=O)OCC1CC(OC(C)=O)C(n2cc(C(I)=CI)c(=O)[nH]c2=O)O1` (configuration not stated) was 75 to 77 °C; that for `CCOCCc1ccc(OCCN(C(=O)n2cncn2)c2ncnc3sc(CC)cc23)c(C)c1` was 129 to 131 °C; that for `CCOC(=O)C(C(=O)OCC)c1ccc(OCC2=NCCN2)cc1` was 72 to 110 °C.
Next, `COC(=O)C1(CCCN2CCN(c3ccccc3)CC2)Oc2ccccc2CCC1O` (configuration not stated): 98 to 99 °C; `O=C(c1ccco1)N1CCc2cc(S(=O)(=O)n3cc(-c4ccccc4)[nH]c3=O)ccc21`: 256 to 257 °C.
`COC(=O)CNc1cccc(C(N)=O)c1` had a melting point of 146 to 147 °C.
The value for `Cc1nnc(-c2ccnc(NC(=O)OC(C)(C)C)c2)o1` was 290 to 291 °C; that for `CCOC(=O)c1cc(-c2ccc(Cl)cc2)nc2ccnn12` was 160 to 161 °C; that for `Cc1ccc(S(=O)(=O)NC(=O)C2C(=O)CC3(CCCCC3)CC2=O)cc1` was 150 to 152 °C.
Next, `O=C(CNCc1cccc(-c2ccc(CC(Nc3ccccc3C(=O)c3ccccc3)C(=O)O)cc2)c1)c1ccccc1` (configuration not stated): 90 °C; `Clc1ccc(CCC(Cn2ccnc2)OCC=Cc2ccccc2)cc1` (configuration not stated): 115 to 116 °C.
`COc1nc2c(Cl)cccc2s1` gave a melting point of 55 to 57 °C.
The value for `O=C(c1ccccc1)c1ccc(Nc2ncnc3ccc(-n4ccnc4)cc23)cc1Cl` was 220 to 223 °C.
In turn, `ON=C(CCC1CCN(Cc2ccccc2)CC1)c1ccc(N2CCCC2)cc1` yielded a melting point of 153 to 158 °C.
The value for `COC(=O)C(Cc1ccc(OCc2nc3ccc(Oc4ccc(C56CC7CC(CC(C7)C5)C6)cc4)cc3n2C)cc1)OCc1ccc(F)cc1` (configuration not stated) was 118 to 120 °C; that for `O=C(O)COc1nnc(C(Cl)(Cl)Cl)s1` was 100 °C; that for `CC(C)NC(=O)OCC(=O)c1ccc(Oc2ccccc2)cc1` was 89 to 90 °C.
For the molecule `COc1cc(C)c(O)c(CCCCCCCCCCO)n1`, the melting point lay within 80 to 81 °C.
`CCn1c(=O)n(CCOCCOC)c(=O)c2c1ncn2Cc1ccccc1` came in with a melting point of 140 °C.
Next, `O=C1SC(Cc2ccc(OCCON=Cc3ccc(-c4ccccc4)nc3)cc2)C(=O)N1C(c1ccccc1)(c1ccccc1)c1ccccc1` (configuration not stated): 146 to 148 °C; `C=C(c1ccccc1OC(C)c1ccccc1)n1ccnc1` (configuration not stated): 172 to 174 °C.
As for `CC(C)(C)OC(=O)NCc1ccc(CN2CCC(c3ccccc3)CC2)cc1`, the melting point fell in the range of 73 to 74 °C.
The value for `CC(C)N(C(=O)CN1C(=O)C(C)(CC(=O)Nc2ccccc2)C(=O)N(c2ccccc2)c2ccccc21)c1ccccc1` (configuration not stated) was 228 to 229 °C; that for `Cc1cccc(-c2n[nH]cc2Cl)c1` was 109 °C; that for `CCOC(=O)C(C)Oc1ccc(N(C)c2cc3ccc(Cl)cc3c(Cl)n2)cc1` (configuration not stated) was 86 °C.
